Some test systems named below: CCRF-CEM leukemia; UO-31 renal; U251 CNS; TK-10 renal; SK-OV-3 ovarian; RPMI-8226 leukemia; A549 NSCLC; SN12C renal; MDA-MB-231 breast; HCT-15 colon.
Test in all cases: NCI tumour cell line growth inhibition, 48 h

This note sets out measurements from PubChem BioAssay (NCI).

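Cells were grown in 96-well plates and exposed to each compound for 48 hours at five concentrations; endpoints were interpolated linearly between bracketing concentrations, or set to the highest concentration if not reached. Here, GI50 denotes the concentration required for 50% inhibition of growth. TGI: total growth inhibition.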 Where only a bound is given, the exact number is not on record here.

On to `COc1ccc2c(c1)c(-c1ccc(-c3cn(S(=O)(=O)c4ccccc4)c4ccc(OC)cc34)s1)cn2S(=O)(=O)c1ccccc1`, for which the GI50 in the assay with CCRF-CEM leukemia, in the assay with UO-31 renal, with U251 CNS, with TK-10 renal, in the assay with SK-OV-3 ovarian and with RPMI-8226 leukemia was over 100 µM in each case. Also, the GI50 in the assay with A549 NSCLC, with SN12C renal, in the assay with MDA-MB-231 breast and in the assay with HCT-15 colon was over 100 µM throughout. For the same compound, the TGI in the assay on CCRF-CEM leukemia, in the assay with UO-31 renal, with U251 CNS, in the assay with TK-10 renal, in the assay on SK-OV-3 ovarian and in the assay with RPMI-8226 leukemia was over 100 µM each time. Further, the TGI with A549 NSCLC, in the assay on SN12C renal, in the assay on MDA-MB-231 breast and in the assay with HCT-15 colon was over 100 µM in each case.
In the case of `C=C1C(=O)O[C@@H]2C[C@@]3(C)CCC[C@H](C)C3=C[C@H]12`, the TGI is 9.94 µM with CCRF-CEM leukemia; 17.1 µM in the assay with UO-31 renal; 21.5 µM with U251 CNS; 9.35 µM in the assay with TK-10 renal; 40.4 µM in the assay with SK-OV-3 ovarian; 6.21 µM with RPMI-8226 leukemia. Moreover, the TGI is 31 µM with A549 NSCLC, 12.5 µM in the assay with SN12C renal, 27.3 µM in the assay with MDA-MB-231 breast and 17.1 µM in the assay with HCT-15 colon.
`O=C1CC(c2ccc(N3CCOCC3)cc2)(c2ccsc2)NC(=O)C1Sc1ccccc1Cl` (stereo not given): the GI50 in the assay with CCRF-CEM leukemia was 6 µM; in the assay on UO-31 renal, 34.4 µM; in the assay on U251 CNS, 19.5 µM; in the assay on TK-10 renal it was over 100 µM; in the assay on SK-OV-3 ovarian, over 100 µM; with RPMI-8226 leukemia it was 31.6 µM. The GI50 in the assay with A549 NSCLC is over 100 µM; with SN12C renal it was 10.1 µM; in the assay on MDA-MB-231 breast, 45.9 µM; in the assay with HCT-15 colon, 56.7 µM. In addition, the TGI in the assay on CCRF-CEM leukemia, in the assay on UO-31 renal, in the assay with U251 CNS, in the assay with TK-10 renal, with SK-OV-3 ovarian and with RPMI-8226 leukemia was over 100 µM throughout. In addition, the TGI in the assay on A549 NSCLC, in the assay with SN12C renal, with MDA-MB-231 breast and with HCT-15 colon was over 100 µM in each case.
Turning to `CC[C@@H](C(=O)[C@@H](C)[C@@H](O)[C@H](C)[C@@H]1O[C@@H]([C@@H](CC)C(=O)O)CC[C@@H]1C)C1O[C@]2(C=CC(=O)[C@]3(CC[C@@](C)([C@H]4CC[C@](O)(CC)[C@H](C)O4)O3)O2)[C@H](C)C[C@@H]1C` (stereo not given in full), the GI50 with CCRF-CEM leukemia was 0.278 µM; with UO-31 renal it was 1.19 µM; with U251 CNS, 0.0791 µM; with TK-10 renal it was 2.08 µM; with SK-OV-3 ovarian, 3.7 µM; with RPMI-8226 leukemia it was 0.0868 µM. In addition, the GI50 with A549 NSCLC is 0.342 µM; in the assay with SN12C renal, 0.179 µM; in the assay with MDA-MB-231 breast it was 0.854 µM; in the assay on HCT-15 colon, 0.644 µM. Moreover, the TGI came to 9.3 µM in the assay on CCRF-CEM leukemia; 11 µM in the assay on UO-31 renal; 13.3 µM in the assay with U251 CNS; 25.8 µM in the assay with TK-10 renal; 16 µM in the assay on SK-OV-3 ovarian; 4.81 µM with RPMI-8226 leukemia. For the same compound, the TGI in the assay on A549 NSCLC amounted to 22.7 µM; in the assay with SN12C renal, 15 µM; with MDA-MB-231 breast it was 6.01 µM; in the assay with HCT-15 colon, 14.3 µM.
Regarding `C1=Cc2ccccc2Nc2ccccc21`, the GI50 with CCRF-CEM leukemia, with UO-31 renal, with U251 CNS, in the assay with TK-10 renal, in the assay on SK-OV-3 ovarian and with RPMI-8226 leukemia was over 100 µM in each case. Besides, the GI50 in the assay with A549 NSCLC, in the assay with SN12C renal, in the assay on MDA-MB-231 breast and in the assay with HCT-15 colon was over 100 µM each time. In addition, the TGI in the assay with CCRF-CEM leukemia, with UO-31 renal, in the assay on U251 CNS, in the assay on TK-10 renal, in the assay on SK-OV-3 ovarian and with RPMI-8226 leukemia was over 100 µM in each case. Moreover, the TGI in the assay with A549 NSCLC, in the assay on SN12C renal, in the assay with MDA-MB-231 breast and with HCT-15 colon was over 100 µM each time.
Take `COc1cc(C(=O)c2ccc3c(c2)OCO3)cc(OC)c1OC`: the GI50 with CCRF-CEM leukemia was 2.46 µM; in the assay with UO-31 renal, 2.93 µM; in the assay on U251 CNS, 2.81 µM; in the assay with TK-10 renal, 4.44 µM; in the assay on SK-OV-3 ovarian, 2.84 µM; with RPMI-8226 leukemia, 2.64 µM. Also, the GI50 with A549 NSCLC was 6.03 µM; with SN12C renal, 6.86 µM; in the assay with MDA-MB-231 breast, 8.65 µM; with HCT-15 colon it was 0.928 µM. Also, the TGI in the assay with CCRF-CEM leukemia is over 75.3 µM; with UO-31 renal, 38.2 µM; in the assay on U251 CNS, over 100 µM; with TK-10 renal, over 100 µM; in the assay with SK-OV-3 ovarian, 33.1 µM; in the assay with RPMI-8226 leukemia, over 42 µM. The TGI in the assay with A549 NSCLC, in the assay on SN12C renal, in the assay with MDA-MB-231 breast and in the assay with HCT-15 colon was over 100 µM in each case.
Regarding `COc1ccccc1OCC(=O)Nc1sc2c(c1C(N)=O)CCC2`, the GI50 in the assay on CCRF-CEM leukemia, in the assay with UO-31 renal, in the assay on U251 CNS, with TK-10 renal, in the assay on SK-OV-3 ovarian and with RPMI-8226 leukemia was over 100 µM each time. The GI50 was 32.4 µM in the assay on A549 NSCLC, over 100 µM in the assay with SN12C renal, over 100 µM in the assay on MDA-MB-231 breast and 33.4 µM in the assay with HCT-15 colon. Also, the TGI in the assay with CCRF-CEM leukemia, in the assay with UO-31 renal, in the assay on U251 CNS, in the assay on TK-10 renal, in the assay with SK-OV-3 ovarian and in the assay on RPMI-8226 leukemia was over 100 µM in each case. In addition, the TGI with A549 NSCLC, in the assay with SN12C renal, in the assay with MDA-MB-231 breast and in the assay with HCT-15 colon was over 100 µM in each case.
